Assay results as given in ChEMBL document CHEMBL1136398, “Non-peptide alphavbeta3 antagonists. Part 6: design and synthesis of alphavbeta3 antagonists containing a pyridone or pyrazinone central scaffold” (Bioorg Med Chem Lett, 2003).

How the values were obtained:
[1] = Protein binding in human plasma; type: ADME, cell-free; details: read-out: PB (converted)
[2] = Half-life in vivo in dog by intravenous administration at a dose of 0.2 mg/kg; type: ADME, organism-based, Canis lupus familiaris; set-up: dose 0.2 mg/kg, route intravenous
[3] = Half-life in vivo in dog by intravenous administration at a dose of 1 mg/kg; type: ADME, organism-based, Canis lupus familiaris; set-up: dose 1 mg/kg, route intravenous
Canis familiaris [4] = experiment: Plasma clearance in vivo in dog by intravenous administration at a dose of 0.2 mg/kg; type: ADME, organism-based, Canis lupus familiaris; set-up: dose 0.2 mg/kg, route intravenous
Canis familiaris [5] = experiment: Plasma clearance in vivo in dog by intravenous administration at a dose of 1 mg/kg; type: ADME, organism-based, Canis lupus familiaris; set-up: dose 1 mg/kg, route intravenous
[6] = Partition coefficient (logP); type: physicochemical; details: octanol/water
Integrin alpha-V/beta-3 [7] = target: T1, Integrin alpha-V/beta-3 (Homo sapiens, UniProt P05106+P06756); experiment: Inhibitory activity against human alphaV-beta3 integrin using SPAV3 assay; type: protein-complex assay
Integrin alpha-V/beta-3 [8] = target: T1, Integrin alpha-V/beta-3; experiment: Inhibitory activity against human alpha V beta3 receptor using SPAV3 assay; type: protein-complex assay
[9] = Oral bioavailability in dog (dose 0.2 mg/kg i.v.); type: ADME, organism-based, Canis lupus familiaris; details: in vivo
[10] = Oral bioavailability in dog (dose 1 mg/kg i.v.); type: ADME, organism-based, Canis lupus familiaris; details: in vivo

T1 sequence (P05106 27-788 limits assumed): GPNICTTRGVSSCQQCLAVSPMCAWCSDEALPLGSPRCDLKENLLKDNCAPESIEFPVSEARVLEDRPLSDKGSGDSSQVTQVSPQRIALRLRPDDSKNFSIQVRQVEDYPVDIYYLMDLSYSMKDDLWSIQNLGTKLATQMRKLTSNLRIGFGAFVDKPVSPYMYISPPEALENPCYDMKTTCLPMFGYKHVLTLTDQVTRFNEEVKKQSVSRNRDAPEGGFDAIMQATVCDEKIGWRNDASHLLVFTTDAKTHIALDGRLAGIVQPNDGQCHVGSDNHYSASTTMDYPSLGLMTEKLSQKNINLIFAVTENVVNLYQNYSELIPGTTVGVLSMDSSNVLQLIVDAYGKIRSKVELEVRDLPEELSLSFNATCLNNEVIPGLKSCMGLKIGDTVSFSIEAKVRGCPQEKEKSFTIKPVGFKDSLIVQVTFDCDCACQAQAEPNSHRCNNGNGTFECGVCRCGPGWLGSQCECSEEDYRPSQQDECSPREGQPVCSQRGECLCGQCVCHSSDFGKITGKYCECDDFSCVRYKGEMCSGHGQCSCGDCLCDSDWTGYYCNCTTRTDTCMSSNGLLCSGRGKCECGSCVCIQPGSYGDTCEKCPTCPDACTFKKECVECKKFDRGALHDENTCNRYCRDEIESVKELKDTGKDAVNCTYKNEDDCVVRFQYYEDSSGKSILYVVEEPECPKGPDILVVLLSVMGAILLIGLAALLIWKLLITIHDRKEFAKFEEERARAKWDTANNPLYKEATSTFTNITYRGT
T1 sequence (P06756 31-889 limits assumed): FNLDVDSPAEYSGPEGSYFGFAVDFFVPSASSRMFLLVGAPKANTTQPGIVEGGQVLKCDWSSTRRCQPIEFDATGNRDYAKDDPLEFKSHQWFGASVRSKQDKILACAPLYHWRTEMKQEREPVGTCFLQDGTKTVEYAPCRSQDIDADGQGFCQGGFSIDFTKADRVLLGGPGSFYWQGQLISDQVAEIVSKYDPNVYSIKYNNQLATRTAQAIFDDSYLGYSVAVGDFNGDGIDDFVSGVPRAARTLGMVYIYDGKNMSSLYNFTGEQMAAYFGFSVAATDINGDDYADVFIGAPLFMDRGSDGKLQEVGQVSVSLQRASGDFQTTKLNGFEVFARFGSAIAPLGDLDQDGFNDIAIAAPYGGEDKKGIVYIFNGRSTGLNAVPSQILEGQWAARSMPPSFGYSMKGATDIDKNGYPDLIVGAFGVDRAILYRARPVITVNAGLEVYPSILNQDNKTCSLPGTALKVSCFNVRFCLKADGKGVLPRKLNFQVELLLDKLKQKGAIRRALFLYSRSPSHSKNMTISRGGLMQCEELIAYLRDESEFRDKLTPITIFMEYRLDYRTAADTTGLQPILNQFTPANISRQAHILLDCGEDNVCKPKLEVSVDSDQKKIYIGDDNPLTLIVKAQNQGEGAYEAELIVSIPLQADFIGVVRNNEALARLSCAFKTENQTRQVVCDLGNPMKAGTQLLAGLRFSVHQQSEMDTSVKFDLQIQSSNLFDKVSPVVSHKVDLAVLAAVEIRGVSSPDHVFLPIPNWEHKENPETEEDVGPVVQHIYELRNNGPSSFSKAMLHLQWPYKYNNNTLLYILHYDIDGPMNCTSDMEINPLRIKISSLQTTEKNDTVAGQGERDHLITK
T1 sequence (P06756 891-1048 limits assumed): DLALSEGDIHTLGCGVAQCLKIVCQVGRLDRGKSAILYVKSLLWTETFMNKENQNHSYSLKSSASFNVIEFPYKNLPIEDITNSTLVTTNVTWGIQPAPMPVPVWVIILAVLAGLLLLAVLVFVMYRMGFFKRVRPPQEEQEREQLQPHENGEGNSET

Compound | fraction unbound [1] | half-life [2] [h] | half-life [3] [h] | Cl (Canis familiaris [4]) [mL/min/kg] | Cl (Canis familiaris [5]) [mL/min/kg] | logP [6] | IC50 (Integrin alpha-V/beta-3 [7]) [nM] | IC50 (Integrin alpha-V/beta-3 [8]) [nM] | bioavailability [9] [%] | bioavailability [10] [%]
Cc1ccc(NCc2ccc3c(n2)NCCC3)c(=O)n1CC(=O)N[C@@H](CC(=O)O)c1cccnc1 | 0.088 | 0.8 | 0.8 | 21 | 21 | -1.46 | 1 | – | – | –
O=C(O)C[C@H](NC(=O)Cn1c(C2CC2)c(Cl)nc(NCc2ccc3c(n2)NCCC3)c1=O)c1cccc(F)c1 | – | – | – | – | – | 1.1 | – | 2.7 | – | –
O=C(O)C[C@H](NC(=O)CN1CC[C@H](CCc2ccc3c(n2)NCCC3)C1=O)c1cccnc1 | 0.446 | 1 | 1 | – | – | – | – | 0.4 | – | –
O=C(O)C[C@H](NC(=O)Cn1cccc(NCc2ccc3c(n2)NCCC3)c1=O)c1cccnc1 | – | – | – | – | – | 1.55 | 1.4 | – | – | –
O=C(O)C[C@H](NC(=O)Cc1cccc(CCc2ccc3c(n2)NCCC3)c1)c1cccnc1 | – | – | – | – | – | – | – | 21 | – | –
Cc1c(Cl)nc(NCc2ccc3c(n2)NCCC3)c(=O)n1CC(=O)N[C@@H](CC(=O)O)c1cccc(F)c1 | 0.015 | 2.1 | 2.1 | 28 | 28 | 0.61 | – | 2.1 | – | –
O=C(O)C[C@H](NC(=O)Cn1c(C2CC2)ccc(NCc2ccc3c(n2)NCCC3)c1=O)c1cccc(F)c1 | 0.006 | 0.8 | 0.8 | 20 | 20 | 0.54 | 0.8 | – | 3 | 3
C#C[C@H](CC(=O)O)NC(=O)Cn1c(C2CC2)ccc(NCc2ccc3c(n2)NCCC3)c1=O | – | – | – | – | – | -0.97 | 9 | – | – | –
O=C(O)C[C@H](NC(=O)Cn1c(C2CC2)cnc(NCc2ccc3c(n2)NCCC3)c1=O)c1ccc2c(c1)OCO2 | 0.025 | 1.1 | 1.1 | 26 | 26 | -0.1 | – | 0.2 | 0.3 | 0.3
CCc1c(Cl)nc(NCc2ccc3c(n2)NCCC3)c(=O)n1CC(=O)N[C@@H](CC(=O)O)c1cccc(F)c1 | – | – | – | – | – | 1.3 | – | 9.3 | – | –
Cc1cnc(NCc2ccc3c(n2)NCCC3)c(=O)n1CC(=O)N[C@@H](CC(=O)O)c1cccc(F)c1 | – | – | – | – | – | -0.31 | – | 1.1 | – | –
O=C(O)C[C@H](NC(=O)Cn1c(C2CC2)ccc(NCc2ccc3c(n2)NCCC3)c1=O)c1ccc2c(c1)OCC2 | – | – | – | – | – | 0.28 | 0.2 | – | – | –
O=C(O)C[C@H](NC(=O)Cn1c(C2CC2)ccc(NCc2ccc3c(n2)NCCC3)c1=O)c1cccnc1 | – | – | – | – | – | -0.8 | 0.2 | – | – | –
CCc1cnc(NCc2ccc3c(n2)NCCC3)c(=O)n1CC(=O)N[C@@H](CC(=O)O)c1cccc(F)c1 | 0.028 | 1.4 | 1.4 | 22 | 22 | -0.47 | – | 1.9 | 4.3 | 4.3

Results, then the compound that gave them:

fraction unbound [1] | half-life [2] [h] | half-life [3] [h] | Cl (Canis familiaris [4]) [mL/min/kg] | Cl (Canis familiaris [5]) [mL/min/kg] | logP [6] | IC50 (Integrin alpha-V/beta-3 [7]) [nM] | IC50 (Integrin alpha-V/beta-3 [8]) [nM] | bioavailability [9] [%] | bioavailability [10] [%] | Compound
– | – | – | – | – | 1.12 | – | 0.7 | – | – | O=C(O)C[C@H](NC(=O)Cn1c(C2CC2)c(Cl)nc(NCc2ccc3c(n2)NCCC3)c1=O)c1cnc2ccccc2c1
– | – | – | – | – | – | 0.8 | – | – | – | Cc1cnc(NCc2ccc3c(n2)NCCC3)c(=O)n1CC(=O)N[C@@H](CC(=O)O)c1cccnc1
– | – | – | – | – | 1.6 | – | 112 | – | – | O=C(O)C[C@H](NC(=O)Cn1c(-c2ccccc2)c(Cl)nc(NCc2ccc3c(n2)NCCC3)c1=O)c1cccc(F)c1
– | – | – | – | – | 0.25 | – | 0.2 | – | – | O=C(O)C[C@H](NC(=O)Cn1c(C2CC2)cnc(NCc2ccc3c(n2)NCCC3)c1=O)c1cccnc1
– | – | – | – | – | -0.48 | 1.4 | – | – | – | CCCc1ccc(NCc2ccc3c(n2)NCCC3)c(=O)n1CC(=O)N[C@@H](CC(=O)O)c1cccnc1
– | – | – | – | – | 0.9 | – | 0.2 | – | – | O=C(O)C[C@H](NC(=O)Cn1c(C2CC2)c(Cl)nc(NCc2ccc3c(n2)NCCC3)c1=O)c1ccc2c(c1)OCC2
– | – | – | – | – | – | 246 | – | – | – | O=C(O)C[C@H](NC(=O)Cc1ccc(CCc2ccc3c(n2)NCCC3)s1)c1cccnc1
0.025 | 1.1 | 1.1 | 26 | 26 | 0.15 | – | 1.4 | 0.3 | 0.3 | O=C(O)C[C@H](NC(=O)Cn1c(C2CC2)cnc(NCc2ccc3c(n2)NCCC3)c1=O)c1cccc(F)c1
– | – | – | – | – | -0.26 | – | 0.3 | – | – | O=C(O)C[C@H](NC(=O)Cn1c(C2CC2)c(Cl)nc(NCc2ccc3c(n2)NCCC3)c1=O)c1cccnc1
